In PMC5893615, “Inhibition of homoserine dehydrogenase by formation of a cysteine-NAD covalent complex” (Scientific Reports, 2018):
Values belong to the molecule of their own block, whether it stands above or below them.

Legend:
[1] = biological target: T1, Homoserine dehydrogenase (StHSD) (Sulfurisphaera tokodaii, UniProt F9VNG5); test: product inhibition kinetics of homoserine oxidation (double reciprocal plots); type: biochemical
T1 construct: gene hom

[2] = biological target: T1, Homoserine dehydrogenase (StHSD); test: crystal structure with NAD at […] Å; Ki from Dixon plots of homoserine oxidation by purified enzyme; difference UV spectrum; type: biochemical
[3] = biological target: T1, Homoserine dehydrogenase (StHSD); test: crystal structure with cysteine at […] Å; steady-state kinetics (apparent Km); type: biochemical; details: cited from earlier work
[4] = biological target: T1, Homoserine dehydrogenase (StHSD); test: initial velocity and product inhibition kinetics of NAD-dependent oxidation by purified enzyme; type: biochemical
[5] = substrate: NC(=O)c1ccc[n+]([C@@H]2O[C@H](COP(=O)([O-])OP(=O)(O)OC[C@H]3O[C@@H](n4cnc5c(N)ncnc54)[C@H](OP(=O)(O)O)[C@@H]3O)[C@@H](O)[C@H]2O)c1; test: steady-state kinetics of purified enzyme (apparent Km); type: biochemical, Sulfurisphaera tokodaii; details: Phe49 could exclude the C2′ phosphate group of NADP; varied: cofactor

Molecule: NC(=O)C1=CN([C@@H]2O[C@H](COP(=O)(O)OP(=O)(O)OC[C@H]3O[C@@H](n4cnc5c(N)ncnc54)[C@H](O)[C@@H]3O)[C@@H](O)[C@H]2O)C=CC1 [NADH]
product inhibition kinetics of homoserine oxidation (double reciprocal plots) [1]: which suggests that NADH acts as a competitive inhibitor of NAD

Ki [2]: 11 µM
Molecule: N[C@@H](CS)C(=O)O [cysteine]

Molecule: NC(=O)c1ccc[n+]([C@@H]2O[C@H](COP(=O)([O-])OP(=O)(O)OC[C@H]3O[C@@H](n4cnc5c(N)ncnc54)[C@H](O)[C@@H]3O)[C@@H](O)[C@H]2O)c1 [NAD]
Km [3]: 330 µM

Molecule: N[C@@H](CCO)C(=O)O [homoserine]
initial velocity and product inhibition kinetics of NAD-dependent oxidation by p [4]: NAD binds to the free form of the enzyme, after which homoserine binds to the enzyme-NAD complex

B1: Homoserine dehydrogenase (StHSD) (Sulfurisphaera tokodaii str. 7) (protein)
chain: MKLLLFGYGNVGKAFRKLLHEKRSPELNDVIIGGIVTRRGIMLQDKEDFTPDLEGDVFKAFEKIKPDIIVDVSSANYNNGEPSLSLYKEAIKDGVNIITTNKAPLALAFNEIFSLARSKGVKIGFQGTVMSGTPSINLYRVLPGSRVIKIRGILNGTTNFILTLMNKGVSFEEALKEAQRRGYAEEDPTLDINGFDAAAKITILANFMIGNSVTIKDVKFEGINRDLPKNEKIKLIAYADEKEVWVKPLPISQDDPLYNVDGVENALEITTDIQSILIRGPGAGPVNAAYGALSDLILLKRDCL
Km [5]: 1200 µM
